Measured values published in patent US11028075B2, “Therapeutic compounds and methods of use thereof” (GENENTECH, INC., priority 2018, dated 2021).
Where a name gives a salt, the structure may show the parent alone.

Legend:
hNav1.7 [1] = biological target: T1, hNav1.7 (Homo sapiens (Human), UniProt Q15858); assay: Tritiated compound binding to membranes from cells heterologously expressing hNav1.7 and the β1 subunit (Nav1.7 LBA); settings: competitive binding vs [3H]compound, membranes with hNav1.7 and β1 subunit; read-out: Nav1.7 LBA EVO IC50
Method in brief: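 Membranes from cells expressing hNav1.7 with β1 were incubated at room temperature with a tritiated competitive Nav1.7 inhibitor plus test compound in 100 mM NaCl, 20 mM Tris pH 7.4, 0.01% BSA; nonspecific binding was set with 1 μM unlabeled compound. Incubation was 18 h with […] radioligand, or 3 h with […]. Bound ligand was filtered and counted, and IC50 came from a 4-parameter fit.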
Target sequence in this assay (Q15858 whole entry, looked up): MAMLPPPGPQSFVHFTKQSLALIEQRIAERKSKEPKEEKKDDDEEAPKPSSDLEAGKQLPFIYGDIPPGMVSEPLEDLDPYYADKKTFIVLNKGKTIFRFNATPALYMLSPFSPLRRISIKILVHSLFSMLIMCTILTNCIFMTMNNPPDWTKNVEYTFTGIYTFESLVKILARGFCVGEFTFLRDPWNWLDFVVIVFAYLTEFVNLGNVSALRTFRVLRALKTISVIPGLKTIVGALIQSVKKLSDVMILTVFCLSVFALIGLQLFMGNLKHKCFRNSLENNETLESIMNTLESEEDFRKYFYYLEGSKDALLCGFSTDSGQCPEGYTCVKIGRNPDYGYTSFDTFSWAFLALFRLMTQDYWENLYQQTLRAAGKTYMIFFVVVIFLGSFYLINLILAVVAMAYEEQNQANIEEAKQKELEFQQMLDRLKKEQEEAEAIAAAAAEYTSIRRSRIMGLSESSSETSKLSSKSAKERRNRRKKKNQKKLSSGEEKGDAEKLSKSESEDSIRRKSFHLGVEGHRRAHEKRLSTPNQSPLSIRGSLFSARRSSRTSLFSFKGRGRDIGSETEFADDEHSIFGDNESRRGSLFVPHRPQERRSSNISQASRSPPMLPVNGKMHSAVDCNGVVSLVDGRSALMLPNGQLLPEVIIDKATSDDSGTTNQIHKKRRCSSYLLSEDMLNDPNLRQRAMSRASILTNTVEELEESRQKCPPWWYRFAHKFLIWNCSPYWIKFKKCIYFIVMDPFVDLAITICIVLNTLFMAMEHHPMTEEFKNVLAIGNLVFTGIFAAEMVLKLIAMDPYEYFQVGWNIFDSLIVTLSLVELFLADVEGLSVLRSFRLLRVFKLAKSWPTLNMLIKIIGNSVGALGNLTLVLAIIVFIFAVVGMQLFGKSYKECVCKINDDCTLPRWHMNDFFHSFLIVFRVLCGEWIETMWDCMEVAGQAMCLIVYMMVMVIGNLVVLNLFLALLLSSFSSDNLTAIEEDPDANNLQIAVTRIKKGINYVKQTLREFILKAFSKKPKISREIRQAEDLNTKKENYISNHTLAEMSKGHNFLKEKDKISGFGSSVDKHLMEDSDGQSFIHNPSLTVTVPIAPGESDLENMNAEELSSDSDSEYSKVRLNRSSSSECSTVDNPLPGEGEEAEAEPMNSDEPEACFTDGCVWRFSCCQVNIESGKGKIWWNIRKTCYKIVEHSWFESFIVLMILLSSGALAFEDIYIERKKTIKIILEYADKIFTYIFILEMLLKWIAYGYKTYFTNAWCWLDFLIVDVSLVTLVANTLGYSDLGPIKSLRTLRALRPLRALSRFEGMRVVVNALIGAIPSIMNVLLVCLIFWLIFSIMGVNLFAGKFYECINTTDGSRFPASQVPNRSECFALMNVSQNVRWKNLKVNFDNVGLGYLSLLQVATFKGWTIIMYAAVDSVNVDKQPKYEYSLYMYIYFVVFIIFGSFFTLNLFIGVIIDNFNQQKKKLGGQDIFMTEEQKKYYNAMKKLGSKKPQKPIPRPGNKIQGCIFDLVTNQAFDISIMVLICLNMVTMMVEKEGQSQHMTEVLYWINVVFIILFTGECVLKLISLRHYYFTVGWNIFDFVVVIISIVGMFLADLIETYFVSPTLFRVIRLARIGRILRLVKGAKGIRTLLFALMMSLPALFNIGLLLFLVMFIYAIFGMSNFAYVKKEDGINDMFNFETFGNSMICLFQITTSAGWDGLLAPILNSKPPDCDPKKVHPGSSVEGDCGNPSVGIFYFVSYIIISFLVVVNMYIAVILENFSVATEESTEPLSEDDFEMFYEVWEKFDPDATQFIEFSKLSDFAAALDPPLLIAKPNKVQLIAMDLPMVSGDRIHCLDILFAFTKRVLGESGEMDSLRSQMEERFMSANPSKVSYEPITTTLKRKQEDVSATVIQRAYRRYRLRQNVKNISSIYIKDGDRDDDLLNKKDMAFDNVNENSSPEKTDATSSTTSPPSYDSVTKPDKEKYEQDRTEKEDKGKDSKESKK
Target sequence in this assay (Q07699 whole entry partner, looked up): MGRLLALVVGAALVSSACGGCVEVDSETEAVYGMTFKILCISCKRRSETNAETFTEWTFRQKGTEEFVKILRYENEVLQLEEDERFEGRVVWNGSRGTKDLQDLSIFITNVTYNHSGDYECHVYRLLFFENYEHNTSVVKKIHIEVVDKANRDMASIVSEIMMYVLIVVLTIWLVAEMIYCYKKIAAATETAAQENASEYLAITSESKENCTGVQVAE

hNav1.7 [2] = biological target: T1, hNav1.7; assay: Electrophysiological assay (EP), voltage clamp on Syncropatch 384PE, CHO cells stably expressing Nav1.7; format: cell-based; settings: holding potential −50 mV, 7.5 min compound incubation, read-out: EP_SP hNav1.7 EVO IC50
Method in brief: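 Whole-cell automated patch clamp was run on CHO cells stably expressing human Nav1.7 cDNA, with internal solution CsCl/EGTA pH 7.2, external solution 80 mM NaCl pH 7.4, and 0.1% Pluronic F-127. From a −50 mV holding potential: −10 mV for 10 ms, −150 mV for 20 ms, then −10 mV for 10 ms, where current was measured. Inhibition was taken after 7.5 min compound incubation, with TTX added for full block.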
Target sequence in this assay (Q15858 other isoform, or with tags, fused parts or gaps): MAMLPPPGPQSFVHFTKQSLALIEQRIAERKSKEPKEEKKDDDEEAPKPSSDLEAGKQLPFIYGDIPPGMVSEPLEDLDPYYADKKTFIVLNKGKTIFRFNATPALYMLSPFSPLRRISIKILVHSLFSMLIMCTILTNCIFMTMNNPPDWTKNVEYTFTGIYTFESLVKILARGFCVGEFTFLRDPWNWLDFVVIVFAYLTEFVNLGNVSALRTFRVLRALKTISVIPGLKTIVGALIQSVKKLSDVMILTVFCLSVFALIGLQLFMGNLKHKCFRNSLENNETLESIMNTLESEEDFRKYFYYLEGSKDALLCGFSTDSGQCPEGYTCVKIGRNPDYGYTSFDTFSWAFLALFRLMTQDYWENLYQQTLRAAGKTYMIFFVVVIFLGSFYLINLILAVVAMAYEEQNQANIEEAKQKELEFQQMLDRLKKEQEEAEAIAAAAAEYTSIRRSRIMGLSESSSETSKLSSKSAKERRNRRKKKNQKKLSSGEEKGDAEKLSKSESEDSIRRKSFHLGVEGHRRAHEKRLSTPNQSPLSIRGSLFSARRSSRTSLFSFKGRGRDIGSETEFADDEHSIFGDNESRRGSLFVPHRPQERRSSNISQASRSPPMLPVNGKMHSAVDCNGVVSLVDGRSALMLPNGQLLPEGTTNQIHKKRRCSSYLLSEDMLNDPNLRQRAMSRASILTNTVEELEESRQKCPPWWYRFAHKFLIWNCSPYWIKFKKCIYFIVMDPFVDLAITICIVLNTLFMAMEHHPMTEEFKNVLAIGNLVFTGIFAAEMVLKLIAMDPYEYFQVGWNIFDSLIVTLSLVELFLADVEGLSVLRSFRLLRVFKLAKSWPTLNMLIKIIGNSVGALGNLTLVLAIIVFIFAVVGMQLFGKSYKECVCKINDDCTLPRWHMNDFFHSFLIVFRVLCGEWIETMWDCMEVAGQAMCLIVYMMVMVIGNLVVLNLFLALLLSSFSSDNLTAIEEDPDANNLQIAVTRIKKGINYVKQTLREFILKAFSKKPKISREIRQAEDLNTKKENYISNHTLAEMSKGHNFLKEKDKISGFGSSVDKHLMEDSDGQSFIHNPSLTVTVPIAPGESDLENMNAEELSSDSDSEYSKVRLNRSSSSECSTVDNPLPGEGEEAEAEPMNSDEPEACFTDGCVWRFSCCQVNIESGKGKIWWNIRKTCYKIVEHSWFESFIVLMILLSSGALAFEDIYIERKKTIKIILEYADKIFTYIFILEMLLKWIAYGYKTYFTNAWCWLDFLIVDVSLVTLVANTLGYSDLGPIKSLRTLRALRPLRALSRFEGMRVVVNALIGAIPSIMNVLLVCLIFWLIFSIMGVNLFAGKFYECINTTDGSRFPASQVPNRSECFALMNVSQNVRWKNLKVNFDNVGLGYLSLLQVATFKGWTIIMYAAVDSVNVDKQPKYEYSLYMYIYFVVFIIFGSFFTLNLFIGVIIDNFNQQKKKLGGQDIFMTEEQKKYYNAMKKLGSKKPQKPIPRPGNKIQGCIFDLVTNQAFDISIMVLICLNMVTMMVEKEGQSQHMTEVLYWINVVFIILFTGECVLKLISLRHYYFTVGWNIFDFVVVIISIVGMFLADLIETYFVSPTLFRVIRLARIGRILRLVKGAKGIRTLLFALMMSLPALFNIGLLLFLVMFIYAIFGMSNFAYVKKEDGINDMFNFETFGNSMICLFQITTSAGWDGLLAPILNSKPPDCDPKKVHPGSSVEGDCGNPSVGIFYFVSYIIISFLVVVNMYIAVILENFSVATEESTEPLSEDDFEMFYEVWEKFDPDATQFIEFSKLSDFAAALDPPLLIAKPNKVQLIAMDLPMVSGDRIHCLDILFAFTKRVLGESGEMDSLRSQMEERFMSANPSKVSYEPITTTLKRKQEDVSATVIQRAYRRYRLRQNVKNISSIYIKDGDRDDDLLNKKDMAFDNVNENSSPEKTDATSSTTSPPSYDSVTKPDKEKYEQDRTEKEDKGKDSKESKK

| Compound | IC50 (hNav1.7 [1]) [nM] | IC50 (hNav1.7 [2]) [nM] |
| --- | --- | --- |
| O=S(=O)(Nc1ccncn1)c1cc(Cl)c(O[C@H]2CC[C@H](c3cccc(OC(F)(F)F)c3)C[C@@H]2N2CCCC2)cc1F [Example 64, 5-chloro-2-fluoro-N-(pyrimidin-4-yl)-4-(((1S,2S,4S)-2-(pyrrolidin-1-yl)-4-(3-(trifluoromethoxy)-phenyl)cyclohexyl)oxy)benzenesulfonamide formate] | 1.37 | 0.554 |
| CN(C)[C@H]1C[C@@H](c2cc(Cl)ccc2Cl)CC[C@@H]1Oc1cc(F)c(S(=O)(=O)Nc2ccncn2)cc1Cl [Example 65, 5-chloro-4-(((1S,2S,4S)-4-(2,5-dichlorophenyl)-2-(dimethylamino)cyclohexyl)oxy)-2-fluoro-N-(pyrimidin-4-yl)benzenesulfonamide formate] | 5.41 | 1.03 |
| CN(C)[C@H]1C[C@@H](c2ccc(Cl)c(Cl)c2)CC[C@@H]1Oc1cc(F)c(S(=O)(=O)Nc2ccncn2)cc1Cl [Example 67, 5-chloro-4-(((1S,2S,4S)-4-(3,4-dichlorophenyl)-2-(dimethylamino)cyclohexyl)oxy)-2-fluoro-N-(pyrimidin-4-yl)benzenesulfonamide formate] | 3.83 | 0.325 |
| O=S(=O)(Nc1ccncn1)c1cc(F)c(N[C@H]2CC[C@H](c3cccc(C(F)(F)F)c3F)C[C@@H]2N2CCCC2)cc1F [Example 70, 2,5-difluoro-4-(((1S,2S,4S)-4-(2-fluoro-3-(trifluoromethyl)phenyl)-2-(pyrrolidin-1-yl)cyclohexyl)-amino)-N-(pyrimidin-4-yl)benzenesulfonamide hydrochloride] | 7.22 | 0.966 |
| CN(C)[C@H]1CN(c2cc(C(F)(F)F)ccn2)CC[C@@H]1Nc1cc(F)c(S(=O)(=O)Nc2ccncn2)cc1Cl [Example 71, 5-Chloro-4-(((3S,4S)-3-(dimethylamino)-1-(4-(trifluoromethyl)pyridin-2-yl)piperidin-4-yl)amino)-2-fluoro-N-(pyrimidin-4-yl)benzenesulfonamide formate] | 169 | 7.04 |
| CN(C)[C@H]1CN(c2cc(C(F)(F)F)ccn2)CC[C@@H]1Nc1ccc(S(=O)(=O)Nc2ccncn2)c(F)c1 [Example 72, 4-(((3S,4S)-3-(Dimethylamino)-1-(4-(trifluoromethyl)pyridin-2-yl)piperidin-4-yl)amino)-2-fluoro-N-(pyrimidin-4-yl)benzenesulfonamide formate] | 274 | 23.1 |
| CN(C)[C@H]1C[C@@H](c2cccc(Cl)c2Cl)CC[C@@H]1Oc1cc(F)c(S(=O)(=O)Nc2ccncn2)cc1Cl [Example 75, 5-chloro-4-(((1S,2S,4S)-4-(2,3-dichlorophenyl)-2-(dimethylamino)cyclohexyl)oxy)-2-fluoro-N-(pyrimidin-4-yl)benzenesulfonamide] | 50.6 | 2.62 |
| CN(C)[C@H]1C[C@@H](c2ccnc(C(F)(F)F)c2)CC[C@@H]1Oc1cc(F)c(S(=O)(=O)Nc2ccncn2)cc1Cl [Example 76, 5-chloro-4-(((1S,2S,4S)-2-(dimethylamino)-4-(2-(trifluoromethyl)pyridin-4-yl)cyclohexyl)oxy)-2-fluoro-N-(pyrimidin-4-yl)benzenesulfonamide formate] | 78.8 | 8.61 |
| CN(C)[C@H]1C[C@@H](c2cc(Cl)cc(Cl)c2)CC[C@@H]1Oc1cc(F)c(S(=O)(=O)Nc2ccncn2)cc1Cl [Example 82, 5-chloro-4-(((1S,2S,4S)-4-(3,5-dichlorophenyl)-2-(dimethylamino)cyclohexyl)oxy)-2-fluoro-N-(pyrimidin-4-yl)benzenesulfonamide formate] | 1.57 | 0.355 |
| CN(C)[C@H]1C[C@@H](c2cccc(C3CCOCC3)c2)CC[C@@H]1Oc1cc(F)c(S(=O)(=O)Nc2ccncn2)cc1Cl [Example 83] | 38.6 | 6.36 |
| O=S(=O)(Nc1ccncn1)c1cc(F)c(N[C@H]2CC[C@H](c3ccc(F)c(C(F)(F)F)c3)C[C@@H]2N2CCCC2)cc1F [Example 84, 2,5-difluoro-4-(((1S,2S,4S)-4-(4-fluoro-3-(trifluoromethyl)phenyl)-2-(pyrrolidin-1-yl)cyclohexyl)-amino)-N-(pyrimidin-4-yl)benzenesulfonamide] | 0.877 | 0.52 |
| O=S(=O)(Nc1ccncn1)c1cc(F)c(N[C@H]2CC[C@H](c3cc(F)cc(C(F)(F)F)c3)C[C@@H]2N2CCCC2)cc1F [Example 85, 2,5-difluoro-4-(((1S,2S,4S)-4-(3-fluoro-5-(trifluoromethyl)phenyl)-2-(pyrrolidin-1-yl)cyclohexyl)-amino)-N-(pyrimidin-4-yl)benzenesulfonamide formate] | 2.24 | 0.494 |
| CN(C)[C@H]1C[C@@H](c2cc(C(F)(F)F)ccc2Cl)CC[C@@H]1Oc1cc(F)c(S(=O)(=O)Nc2ccncn2)cc1Cl [Example 86, 5-chloro-4-(((1S,2S,4S)-4-(2-chloro-5-(trifluoromethyl)phenyl)-2-(dimethylamino)-cyclohexyl)oxy)-2-fluoro-N-(pyrimidin-4-yl)benzenesulfonamide] | 3.28 | 0.819 |

The next lines start with the values.

| IC50 (hNav1.7 [1]) [nM] | IC50 (hNav1.7 [2]) [nM] | Compound |
| --- | --- | --- |
| 2.59 | 0.732 | CN(CCO)[C@H]1C[C@@H](c2cccc(C(F)(F)F)c2)CC[C@@H]1Oc1cc(F)c(S(=O)(=O)Nc2ccncn2)cc1Cl [Example 66, 5-chloro-2-fluoro-4-(((1S,2S,4S)-2-((2-hydroxyethyl)(methyl)amino)-4-(3-(trifluoromethyl)-phenyl)cyclohexyl)oxy)-N-(pyrimidin-4-yl)benzenesulfonamide formate] |
| 1.69 | 0.737 | CCN[C@H]1C[C@@H](c2cccc(C(F)(F)F)c2)CC[C@@H]1Oc1cc(F)c(S(=O)(=O)Nc2ccncn2)cc1Cl [Example 68, 5-chloro-4-(((1S,2S,4S)-2-(ethylamino)-4-(3-(trifluoromethyl)phenyl)cyclohexyl)oxy)-2-fluoro-N-(pyrimidin-4-yl)benzenesulfonamide formate] |
| 0.474 | 0.173 | CNCCN(C)[C@H]1C[C@@H](c2cccc(C(F)(F)F)c2)CC[C@@H]1Oc1cc(F)c(S(=O)(=O)Nc2ccncn2)cc1Cl [Example 69, 5-chloro-2-fluoro-4-(((1S,2S,4S)-2-(methyl(2-(methylamino)ethyl)amino)-4-(3-(trifluoromethyl)phenyl)cyclohexyl)oxy)-N-(pyrimidin-4-yl)benzenesulfonamide formate] |
| 82.3 | 3.34 | CN(C)[C@H]1CN(S(=O)(=O)c2cccc(C(F)(F)F)c2)CC[C@@H]1Nc1cc(F)c(S(=O)(=O)Nc2ccncn2)cc1Cl [Example 73, 5-Chloro-4-(((3S,4S)-3-(dimethylamino)-1-((3-(trifluoromethyl)phenyl)sulfonyl)piperidin-4-yl)amino)-2-fluoro-N-(pyrimidin-4-yl)benzenesulfonamide formate] |
| 4.01 | 1.85 | CN(C)[C@H]1C[C@@H](c2cc(C(F)(F)F)ccc2F)CC[C@@H]1Oc1cc(F)c(S(=O)(=O)Nc2ccncn2)cc1Cl [Example 74, 5-chloro-4-(((1S,2S,4S)-2-(dimethylamino)-4-(2-fluoro-5-(trifluoromethyl)phenyl)cyclohexyl)oxy)-2-fluoro-N-(pyrimidin-4-yl)benzenesulfonamide] |
| 223 | 18 | CN(C)[C@H]1C[C@@H](c2cccc(C(F)(F)F)c2)CC[C@@H]1Oc1ccc(S(=O)(=O)Nc2ccncn2)cc1F [Example 79, 4-(((1S,2S,4S)-2-(Dimethylamino)-4-(3-(trifluoromethyl)phenyl)cyclohexyl)oxy)-3-fluoro-N-(pyrimidin-4-yl)benzenesulfonamide] |
| 0.661 | 0.334 | CN1CC(N(C)[C@H]2C[C@@H](c3cccc(C(F)(F)F)c3)CC[C@@H]2Oc2cc(F)c(S(=O)(=O)Nc3ccncn3)cc2Cl)C1 [Example 81, 5-chloro-2-fluoro-4-(((1S,2S,4S)-2-(methyl(1-methylazetidin-3-yl)amino)-4-(3-(trifluoromethyl)phenyl)cyclohexyl)oxy)-N-(pyrimidin-4-yl)benzenesulfonamide formate] |
| 7.94 | 1.18 | CN1CC(N[C@H]2C[C@@H](c3cccc(C(F)(F)F)c3)CC[C@@H]2Oc2cc(F)c(S(=O)(=O)Nc3ccncn3)cc2Cl)C1 [Example 87, 5-chloro-2-fluoro-4-(((1S,2S,4S)-2-((1-methylazetidin-3-yl)amino)-4-(3-(trifluoromethyl)phenyl)-cyclohexyl)oxy)-N-(pyrimidin-4-yl)benzenesulfonamide] |
| 170 | 17 | CN(C)[C@H]1C[C@@H](c2cccc(C(F)(F)F)c2)CC[C@@H]1Nc1c(F)cc(S(=O)(=O)Nc2ccncn2)cc1F [Example 88, 4-(((1S,2S,4S)-2-(Dimethylamino)-4-(3-(trifluoromethyl)phenyl)cyclohexyl)amino)-3,5-difluoro-N-(pyrimidin-4-yl)benzenesulfonamide] |
| 6.13 | 1.2 | CN(C)[C@H]1C[C@@H](c2cccc(C(C)(F)F)c2)CC[C@@H]1Oc1cc(F)c(S(=O)(=O)Nc2ccncn2)cc1Cl [Example 91, 5-chloro-4-(((1S,2S,4S)-4-(3-(1,1-difluoroethyl)phenyl)-2-(dimethylamino)cyclohexyl)oxy)-2-fluoro-N-(pyrimidin-4-yl)benzenesulfonamide] |
